In US8916577B2, “Tricyclic derivatives, process for their preparation and their use as kinase inhibitors” (Nerviano Medical Sciences S.R.L., priority 2011, dated 2014):
Structures can show the parent of a compound that is named as a salt.

Assays:
PIM-2 = PIM-2 (Homo sapiens (Human), UniProt Q9P1W9); assay: PIM-2 kinase inhibition assay: Dowex technique; format: biochemical; conditions: 1.5 nM enzyme, 4 microM ATP, Aktide 5 microM
Method: Method for PIM-2 Kinase Inhibition Assay: Dowex Technique
The buffer for PIM-2 assay was composed of HEPES 50 mM, at pH 7.5, with 1 mM MgCl2, 1 mM DTT, 3 microM Na3VO4, and 0.2 mg/mL BSA
Full-length human PIM-2 was expressed and purified as described in Fedorov O, et al., PNAS 2007 104, 51, 20523-28.
Enzyme concentration=1.5 nM
Aktide substrate (Chemical Abstract Service Registry Number 324029-01-8)=5 microM
See above: same procedure as described for PIM-1.

MPS1 = MPS1 (Homo sapiens (Human), UniProt P33981); assay: Biochemical assay for inhibitors of MPS1 kinase activity (33P-ATP trans-phosphorylation, Dowex); conditions: 5 nM MPS1, 15 microM ATP, P38-β-tide 200 microM
Chain of MPS1 (P33981 2-857): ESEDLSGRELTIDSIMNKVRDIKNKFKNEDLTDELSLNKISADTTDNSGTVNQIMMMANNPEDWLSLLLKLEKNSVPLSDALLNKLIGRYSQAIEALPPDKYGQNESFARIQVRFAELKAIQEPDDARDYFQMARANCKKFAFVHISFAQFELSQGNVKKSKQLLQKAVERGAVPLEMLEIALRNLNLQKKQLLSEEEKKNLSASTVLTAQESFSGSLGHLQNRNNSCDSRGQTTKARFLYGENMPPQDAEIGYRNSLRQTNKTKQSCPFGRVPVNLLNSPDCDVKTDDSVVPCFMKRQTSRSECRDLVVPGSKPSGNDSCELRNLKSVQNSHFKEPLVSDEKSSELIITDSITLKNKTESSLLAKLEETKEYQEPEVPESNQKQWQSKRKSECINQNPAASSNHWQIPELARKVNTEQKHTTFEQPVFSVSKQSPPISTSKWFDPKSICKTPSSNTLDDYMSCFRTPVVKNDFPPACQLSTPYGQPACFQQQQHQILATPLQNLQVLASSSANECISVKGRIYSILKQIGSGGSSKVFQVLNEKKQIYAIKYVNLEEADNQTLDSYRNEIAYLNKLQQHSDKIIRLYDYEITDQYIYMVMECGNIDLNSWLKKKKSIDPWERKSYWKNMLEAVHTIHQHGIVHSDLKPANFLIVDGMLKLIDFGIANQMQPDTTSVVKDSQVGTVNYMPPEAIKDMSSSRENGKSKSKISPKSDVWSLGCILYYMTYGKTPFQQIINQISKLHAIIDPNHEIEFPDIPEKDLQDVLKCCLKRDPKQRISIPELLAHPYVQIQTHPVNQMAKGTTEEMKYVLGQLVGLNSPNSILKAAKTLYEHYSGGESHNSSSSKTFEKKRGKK
Description: Cloning, Expression and Purification of Recombinant MPS1 Full Length Protein.
MPS1 full length (corresponding to residues 2-857 of the full length sequence, see Swiss-Prot accession number P33981) was PCR amplified from the full-length human MPS1 gene present in house as clone pGEX4t_MPS1.
Baculoviruses were generated by cotransfecting Sf9 insect cells with the expression vector and the viral DNA using the BaculoGold® transfection kit (Pharmingen). Viral supernatant was recovered after 5 days and subjected to 3 rounds of amplification to increase viral titer. Recombinant protein was produced by infecting High5 insect cells. After 72 hours of infection at 21° C., cells were recovered, pelletted and freezed at −80° C. For purification of recombinant protein, pellet was thawed, resuspended in lysis buffer (PBS, NaCl 150 mM, Glycerol 10%, CHAPS 0.1%, DTT 20 mM, protease and phosphatase inhibitors) and lysed by Gaulin. Lysate was cleared by centrifugation and loaded on a GST affinity column. After extensive wash, recombinant protein was cleaved by a specific protease and eluted by incubation.
To get a fully activated enzyme, the protein was then subjected to auto-phosphorylation in presence of ATP 1 mM at 25° C. for 2 hours in kinase buffer (Hepes pH7.5 50 mM, MgCl2 2.5 mM, MnCl2 1 mM, DTT 1 mM, phosphatase inhibitors); ATP was then removed whit a desalting column.
Biochemical Assay for Inhibitors of MPS1 Kinase Activity
(§1) The inhibitory activity of putative kinase inhibitors and the potency of selected compounds were determined using a trans-phosphorylation assay.
(§2) Specific peptide or protein substrates are trans-phosphorylated by their specific ser-thr or tyr kinase in the presence of ATP traced with ^33P-γ-ATP, and in the presence of their own optimal buffer and cofactors.
(§3) At the end of the phosphorylation reaction, more than 98% unlabeled ATP and radioactive ATP is captured by an excess of the ion exchange dowex resin; the resin then settles down to the bottom of the reaction plate by gravity.
Supernatant is subsequently withdrawn and transferred into a counting plate, then evaluated by P-counting.
The buffer for MPS1 assay was composed of HEPES 50 mM, at pH 7.5, with 2.5 mM MgCl2, 1 mM MnCl2, 1 mM DTT, 3 microM Na3VO4, 2 mM P-glycerophosphate and 0.2 mg/mL BSA.
The assay was run with a final concentration MPS1 of 5 nM, in the presence of 15 microM ATP and 1.5 nM ^33P-γ-ATP; the substrate was P38-β-tide, used at 200 microM.
(§4) The test mix consisted of:
(§5) 1) 3× Enzyme mix (done in Kinase Buffer 3×), 5 microL/well
(§6) 2) 3× substrate and ATP mix (done in ddH2O), together with ^33P-γ-ATP, 5 microL/well
(§7) 3) 3× test compounds (diluted into ddH2O—3% DMSO)—5 microL/well
a) for percent inhibition studies (HTS), individual dilution plates at 1 mM are diluted at a 3× concentration (30 microM) in ddH2O (3% DMSO=final concentration) using a Beckman NX automated pipetting platform. The same instrument is used for distributing the diluted mother plates into the test plates. b) for IC50 determination (KSS platform), 100 μl of each compound at 1 mM in 100% DMSO are transferred from the original plate into the first column of another 96 well plate (A1 to G1); well H1 is left empty for the internal standard inhibitor, usually staurosporine.
An automated station for serial dilutions (Biomek FX, Beckman) is used for producing 1:3 dilutions in 100% DMSO, from line A1 to A10, and for all the seven compounds in the column. Moreover, 4-5 copies of daughter plates are prepared by reformatting 5 microL of this first set of 100% DMSO dilution plates into 384 deep well-plates: one copy of the daughter plates with the serial dilutions of test compounds will be thaw the day of the experiments, reconstituted at a 3× concentration with water and used in the IC50 determination assays. In a standard experiment, the highest concentration (3×) of all compounds is 30 microM, while the lowest one is 1.5 nM. […]

PIM-1 = PIM-1 (Homo sapiens (Human), UniProt P11309); assay: Biochemical assay for inhibitors of PIM-1 kinase activity (33P-ATP trans-phosphorylation, Dowex); conditions: 1 nM enzyme, 200 microM ATP, Aktide 25 microM
Chain of PIM-1 (P11309 whole entry): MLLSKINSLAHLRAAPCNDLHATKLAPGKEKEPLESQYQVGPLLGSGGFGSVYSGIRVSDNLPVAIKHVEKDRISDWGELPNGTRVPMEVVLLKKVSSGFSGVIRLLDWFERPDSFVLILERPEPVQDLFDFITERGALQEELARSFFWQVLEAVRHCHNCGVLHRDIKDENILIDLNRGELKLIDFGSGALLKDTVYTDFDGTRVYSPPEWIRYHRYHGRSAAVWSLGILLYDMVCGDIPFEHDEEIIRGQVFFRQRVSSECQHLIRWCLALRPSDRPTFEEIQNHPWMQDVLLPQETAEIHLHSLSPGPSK
Method: Biochemical Assay for Inhibitors of PIM-1 Kinase Activity
as §1, §2, §3
Supernatant is subsequently withdrawn and transferred into a counting plate, then evaluated by (3-counting.
The buffer for PIM-1 assay was composed of HEPES 50 mM, at pH 7.5, with 10 mM MgCl2, 1 mM DTT, 3 microM NaVO3, and 0.2 mg/mL BSA
Full-length human PIM-1 was expressed and purified as described in Bullock A N, et al., J. Biol. Chem. 2005, 280, 41675-82.
1.7 microM PIM1 was incubated 1 hour RT at 28° C. in the presence of 125 microM ATP
ATP concentration: 200 microM
Enzyme concentration: 1 nM
Substrate concentration Aktide (Chemical Abstract Service Registry Number 324029-01-8): 25 microM
as §4, §5, §6, §7
For IC50 determination, test compounds are received as a 1 mM solution in 100% DMSO and distributed into 96-well plates: compounds are then plated into the first column of a new 96-well plate (A1 to G1), 100 microL/well.
An automated station (Biomek FX, Beckman) is used for serial dilutions, producing 1:3 dilutions in 100% DMSO, from line A1 to A10, for all the compounds in the column. […]
Data are analyzed by an internally customized version of the “Assay Explorer” SW package, which provides sigmoidal fitting of the ten-dilution curves for IC50 determination in secondary assay/hit confirmation routines.

Chain of PIM-2 (Q9P1W9 whole entry): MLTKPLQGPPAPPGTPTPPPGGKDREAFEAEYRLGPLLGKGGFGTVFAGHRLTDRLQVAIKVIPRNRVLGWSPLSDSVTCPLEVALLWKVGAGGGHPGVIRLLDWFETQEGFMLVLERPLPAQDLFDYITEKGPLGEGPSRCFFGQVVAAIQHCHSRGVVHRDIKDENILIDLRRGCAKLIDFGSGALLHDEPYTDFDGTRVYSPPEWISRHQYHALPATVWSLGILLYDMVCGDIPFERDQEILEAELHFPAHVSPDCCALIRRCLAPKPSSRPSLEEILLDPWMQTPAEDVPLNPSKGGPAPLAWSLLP

| SMILES | IC50 (PIM-2) | IC50 (MPS1) | IC50 (PIM-1) |
| --- | --- | --- | --- |
| COc1cc(N2CCN(C)CC2)ccc1Nc1ncc2c(n1)-c1c(c(C(N)=O)nn1C)CCC2 [Compound 3, 9-{[2-methoxy-4-(4-methylpiperazin-1-yl)phenyl]amino}-1-methyl-1,4,5,6-tetrahydropyrazolo[4′,3′:6,7]cyclohepta[1,2-d]pyrimidine-3-carboxamide] | 5.91 µM | 0.194 µM | 1.32 µM |
| COc1cc(C(=O)NC2CCN(C)CC2)ccc1Nc1ncc2c(n1)-c1c(c(C(=O)N[C@H](CN)c3ccccc3)nn1C)CCC2 [Compound 5, N-[(1S)-2-amino-1-phenylethyl]-9-({2-methoxy-4-[(1-methylpiperidin-4-yl)carbamoyl]phenyl}amino)-1-methyl-1,4,5,6-tetrahydropyrazolo[4′,3′:6,7]cyclohepta[1,2-d]pyrimidine-3-carboxamide dihydrochloride] | 3.76 µM | 0.469 µM | 0.497 µM |
| CN1CCN(c2ccc(Nc3ncc4c(n3)-c3c(c(C(N)=O)nn3C)CCC4)cc2)CC1 [Compound 67, 1-methyl-9-{[4-(4-methylpiperazin-1-yl)phenyl]amino}-1,4,5,6-tetrahydropyrazolo[4′,3′:6,7]cyclohepta[1,2-d]pyrimidine-3-carboxamide trifluoroacetate] | 3.6 µM | 1.2 µM | 2.45 µM |
